From paper PMC7347570, “A new functional JAZ degron sequence in strawberry JAZ1 revealed by structural and interaction studies on the COI1–JA-Ile/COR–JAZs complexes” (Scientific Reports, 2020)

Experiments:
Test in all cases: yeast two-hybrid (GAL4), COR-dependent growth
Assay type in all cases: cell-based
AtJAZ9 and FaCOI1 = target: T1, AtJAZ9 and FaCOI1 (Fragaria x ananassa; Arabidopsis thaliana, UniProt A0A290U3W5+Q8W4J8); details: 50 µM COR; 28 °C, 5 days; JAZ co-receptor
T1 construct: gene COI1; mixed-species complex; Saccharomyces cerevisiae AH109
T1 sequence (Q8W4J8 whole entry): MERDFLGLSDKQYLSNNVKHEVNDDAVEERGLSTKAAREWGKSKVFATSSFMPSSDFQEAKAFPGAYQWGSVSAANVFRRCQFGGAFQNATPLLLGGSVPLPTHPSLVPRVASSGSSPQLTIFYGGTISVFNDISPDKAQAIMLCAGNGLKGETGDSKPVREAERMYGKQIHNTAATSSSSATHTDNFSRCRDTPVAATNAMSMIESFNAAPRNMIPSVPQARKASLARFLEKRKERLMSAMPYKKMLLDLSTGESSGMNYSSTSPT
T1 sequence (A0A290U3W5 entry or part of it): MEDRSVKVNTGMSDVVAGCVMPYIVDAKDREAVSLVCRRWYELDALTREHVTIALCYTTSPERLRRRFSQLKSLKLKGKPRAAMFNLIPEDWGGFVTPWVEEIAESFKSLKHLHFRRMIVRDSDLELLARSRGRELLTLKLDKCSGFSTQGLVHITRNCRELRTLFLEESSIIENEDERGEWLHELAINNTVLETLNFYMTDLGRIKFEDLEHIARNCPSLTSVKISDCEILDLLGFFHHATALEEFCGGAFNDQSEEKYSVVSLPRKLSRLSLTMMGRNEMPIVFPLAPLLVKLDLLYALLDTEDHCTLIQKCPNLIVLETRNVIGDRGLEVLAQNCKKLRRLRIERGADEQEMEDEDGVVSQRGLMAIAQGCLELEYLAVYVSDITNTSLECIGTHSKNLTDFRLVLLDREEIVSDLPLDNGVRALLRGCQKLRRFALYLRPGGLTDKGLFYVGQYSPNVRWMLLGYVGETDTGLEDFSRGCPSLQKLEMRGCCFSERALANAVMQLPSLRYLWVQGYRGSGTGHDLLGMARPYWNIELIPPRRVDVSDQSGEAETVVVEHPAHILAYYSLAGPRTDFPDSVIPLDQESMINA

AtCOI1 with AtJAZ1 = target: T2, AtCOI1 with AtJAZ1 (Arabidopsis thaliana, UniProt O04197+Q9LMA8); details: 50 µM COR; 28 °C, 5 days; JAZ co-receptor
T2 construct: gene COI1; Saccharomyces cerevisiae AH109; degron LPIARR
T2 sequence (Q9LMA8 whole entry): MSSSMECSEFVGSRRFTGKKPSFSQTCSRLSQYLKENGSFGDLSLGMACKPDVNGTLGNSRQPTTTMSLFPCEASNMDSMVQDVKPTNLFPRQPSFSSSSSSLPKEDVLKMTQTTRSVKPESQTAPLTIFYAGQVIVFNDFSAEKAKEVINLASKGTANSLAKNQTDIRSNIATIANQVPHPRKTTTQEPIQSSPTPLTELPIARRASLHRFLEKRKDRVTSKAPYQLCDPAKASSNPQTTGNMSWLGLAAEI
T2 sequence (O04197 whole entry): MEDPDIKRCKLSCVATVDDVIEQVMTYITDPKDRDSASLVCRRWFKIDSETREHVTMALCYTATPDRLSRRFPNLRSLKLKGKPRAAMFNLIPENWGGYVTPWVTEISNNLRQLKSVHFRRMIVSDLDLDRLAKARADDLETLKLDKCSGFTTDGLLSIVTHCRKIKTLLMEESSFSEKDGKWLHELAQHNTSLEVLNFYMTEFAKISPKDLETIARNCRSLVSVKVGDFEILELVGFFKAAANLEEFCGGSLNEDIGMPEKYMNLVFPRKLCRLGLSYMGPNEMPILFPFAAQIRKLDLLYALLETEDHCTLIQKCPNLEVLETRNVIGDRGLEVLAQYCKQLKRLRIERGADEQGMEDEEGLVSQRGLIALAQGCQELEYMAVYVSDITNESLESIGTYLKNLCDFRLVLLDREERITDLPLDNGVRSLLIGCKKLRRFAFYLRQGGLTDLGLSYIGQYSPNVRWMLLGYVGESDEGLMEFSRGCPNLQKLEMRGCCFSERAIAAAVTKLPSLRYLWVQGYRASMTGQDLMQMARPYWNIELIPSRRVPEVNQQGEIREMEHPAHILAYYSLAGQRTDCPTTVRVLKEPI

AtCOI1 with AtJAZ9 = target: T3, AtCOI1 with AtJAZ9 (Arabidopsis thaliana, UniProt O04197+Q8W4J8); details: 50 µM COR; 28 °C, 5 days; JAZ co-receptor
T3 construct: gene COI1; Saccharomyces cerevisiae AH109; degron VPQARK
T3 sequence (O04197 whole entry): as above
T3 sequence (Q8W4J8 whole entry): as the sequence (Q8W4J8 whole entry) above

FaCOI1–FaJAZ10 = target: T4, FaCOI1–FaJAZ10 (Fragaria x ananassa, UniProt A0A290U3W5+A0A290U478); details: 50 µM COR; 28 °C, 5 days; SD-Leu-Trp-His selection; JAZ co-receptor
T4 construct: gene COI1; Saccharomyces cerevisiae AH109; degron LPIARR
T4 sequence (A0A290U3W5 entry or part of it): as the sequence (A0A290U3W5 entry or part of it) above
T4 sequence (A0A290U478 entry or part of it): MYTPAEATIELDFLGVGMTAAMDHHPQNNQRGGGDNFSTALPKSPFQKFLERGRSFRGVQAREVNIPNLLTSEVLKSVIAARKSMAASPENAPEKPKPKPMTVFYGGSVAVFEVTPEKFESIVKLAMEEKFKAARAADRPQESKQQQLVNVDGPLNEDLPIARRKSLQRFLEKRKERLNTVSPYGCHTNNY

FaCOI1–FaJAZ1 = target: T5, FaCOI1–FaJAZ1 (Fragaria x ananassa, UniProt A0A290U0M9+A0A290U3W5); details: 50 µM COR; 28 °C, 5 days; growth on SD-Leu-Trp-His and SD-Leu-Trp-His-Ade; JAZ co-receptor
T5 construct: gene COI1; Saccharomyces cerevisiae AH109; native degron IPMQRK
T5 sequence (A0A290U0M9 entry or part of it): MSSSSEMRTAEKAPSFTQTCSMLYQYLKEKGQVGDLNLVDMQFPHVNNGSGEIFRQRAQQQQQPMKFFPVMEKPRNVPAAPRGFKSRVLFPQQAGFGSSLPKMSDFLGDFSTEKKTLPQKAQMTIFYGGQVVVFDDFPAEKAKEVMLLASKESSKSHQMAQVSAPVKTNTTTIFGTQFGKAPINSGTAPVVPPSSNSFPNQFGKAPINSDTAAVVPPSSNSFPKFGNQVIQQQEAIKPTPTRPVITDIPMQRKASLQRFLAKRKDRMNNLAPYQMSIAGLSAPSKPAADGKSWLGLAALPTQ
T5 sequence (A0A290U3W5 entry or part of it): as the sequence (A0A290U3W5 entry or part of it) above

AtCOI1–FaJAZ10 = target: T6, AtCOI1–FaJAZ10 (Arabidopsis thaliana; Fragaria x ananassa, UniProt A0A290U478+O04197); details: 50 µM COR; 28 °C, 5 days; JAZ co-receptor
T6 construct: gene COI1; mixed-species complex; Saccharomyces cerevisiae AH109
T6 sequence (O04197 whole entry): as the sequence (O04197 whole entry) above
T6 sequence (A0A290U478 entry or part of it): as the sequence (A0A290U478 entry or part of it) above

AtCOI1–FaJAZ1 = target: T7, AtCOI1–FaJAZ1 (Arabidopsis thaliana; Fragaria x ananassa, UniProt A0A290U0M9+O04197); details: 50 µM COR; 28 °C, 5 days; JAZ co-receptor
T7 construct: gene COI1; mixed-species complex; Saccharomyces cerevisiae AH109
T7 sequence (A0A290U0M9 entry or part of it): as the sequence (A0A290U0M9 entry or part of it) above
T7 sequence (O04197 whole entry): as the sequence (O04197 whole entry) above

Question: How did the “yeast two-hybrid (GAL4), COR-dependent growth” value (shortened to “yeast two-hybrid (GAL4)”) (AtJAZ9 and FaCOI1) turn out when `CC[C@H]1C=C(C(=O)N[C@@]2(C(=O)O)C[C@@H]2CC)[C@H]2CCC(=O)[C@H]2C1` [coronatine] was run?
Answer: The value was “only a positive interaction between AtJAZ9 and FaCOI1 promoted by COR was observed”.

Question: And the “yeast two-hybrid (GAL4)” value (AtCOI1 with AtJAZ1)?
Answer: Its value is “AtJAZ1 and AtJAZ9 interacted with AtCOI1 which was observed by colony growth”.

Question: What about the “yeast two-hybrid (GAL4)” value (AtCOI1 with AtJAZ9) of the same compound?
Answer: The value was “AtJAZ1 and AtJAZ9 interacted with AtCOI1 which was observed by colony growth”.

Question: And the “yeast two-hybrid (GAL4)” value (FaCOI1–FaJAZ10)?
Answer: Its value is “FaJAZ1 and FaJAZ10 interacted with FaCOI1 in a COR-dependent manner”.

Question: What about the “yeast two-hybrid (GAL4)” value (FaCOI1–FaJAZ1) of the same compound?
Answer: Its value is “FaJAZ1 and FaJAZ10 interacted with FaCOI1 in a COR-dependent manner”.

Question: And the “yeast two-hybrid (GAL4)” value (AtCOI1–FaJAZ10)?
Answer: Its value is “both FaJAZ1 and FaJAZ10 interacted with AtCOI1 in restrictive media and supplemented with COR”.

Question: And the “yeast two-hybrid (GAL4)” value (AtCOI1–FaJAZ1)?
Answer: The value was “both FaJAZ1 and FaJAZ10 interacted with AtCOI1 in restrictive media and supplemented with COR”.
